This passage reports IC50 and NA restoration results from ChEMBL document CHEMBL1133809, “Synthesis of N-propargylphenelzine and analogues as neuroprotective agents” (Bioorg Med Chem Lett, 2001).

As a reminder, the IC50 is the point on the concentration scale where inhibition reaches its midpoint. Read a high IC50 as lower potency.

SMILES strings stand for the structures.

In assay [1] the target is T1, Amine oxidase [flavin-containing] A (Rattus norvegicus, UniProt P21396).
T1 sequence (P21396 whole entry): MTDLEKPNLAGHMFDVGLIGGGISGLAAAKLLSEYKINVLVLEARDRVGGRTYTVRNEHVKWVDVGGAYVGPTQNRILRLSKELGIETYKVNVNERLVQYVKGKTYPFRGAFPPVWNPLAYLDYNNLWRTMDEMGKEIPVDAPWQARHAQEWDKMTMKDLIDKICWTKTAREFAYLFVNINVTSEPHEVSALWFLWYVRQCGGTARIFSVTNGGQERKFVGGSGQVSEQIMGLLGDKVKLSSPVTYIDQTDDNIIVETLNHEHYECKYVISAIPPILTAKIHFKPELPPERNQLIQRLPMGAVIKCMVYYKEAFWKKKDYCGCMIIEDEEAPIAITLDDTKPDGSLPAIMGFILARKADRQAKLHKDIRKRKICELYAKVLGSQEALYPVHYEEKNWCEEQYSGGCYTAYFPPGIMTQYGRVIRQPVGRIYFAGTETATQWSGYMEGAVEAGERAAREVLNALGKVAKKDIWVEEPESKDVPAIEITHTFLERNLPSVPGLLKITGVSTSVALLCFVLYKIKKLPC
Kind of assay: In vitro ability to inhibit Monoamine oxidase A activity in rat whole brain in vitro.

The species named for another assay is Mus musculus. Kind of assay: Compound tested for the prevention of DSP- 4- induced depletion of noradrenaline (NA) in mouse hippocampus ex vivo. The format is functional.
In assay [2] the target is T2, Amine oxidase [flavin-containing] B (Rattus norvegicus, UniProt P19643).
T2 sequence (P19643 whole entry): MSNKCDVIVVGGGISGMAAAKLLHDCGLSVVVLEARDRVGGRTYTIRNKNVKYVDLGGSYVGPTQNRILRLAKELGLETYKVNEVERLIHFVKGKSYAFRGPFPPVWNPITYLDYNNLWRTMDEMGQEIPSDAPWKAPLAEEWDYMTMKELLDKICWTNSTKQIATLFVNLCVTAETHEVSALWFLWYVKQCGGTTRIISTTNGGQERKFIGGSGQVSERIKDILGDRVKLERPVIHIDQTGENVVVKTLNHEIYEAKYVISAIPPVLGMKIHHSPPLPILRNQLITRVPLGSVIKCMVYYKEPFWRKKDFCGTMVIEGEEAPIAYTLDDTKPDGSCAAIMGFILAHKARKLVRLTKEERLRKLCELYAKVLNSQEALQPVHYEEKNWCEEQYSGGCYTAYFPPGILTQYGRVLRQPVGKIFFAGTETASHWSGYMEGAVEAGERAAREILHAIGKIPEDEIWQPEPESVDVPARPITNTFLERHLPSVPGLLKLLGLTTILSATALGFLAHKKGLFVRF
Kind of assay: In vitro ability to inhibit Monoamine oxidase B activity in rat whole brain in vitro.

As to `NNCCc1ccccc1` [PHENELZINE], the IC50 was 30 nM in assay [1] and 76.3 nM in assay [2]. Also, the NA restoration in the assay filed under Mus musculus was 43.48%.

Take `C#CCN(C)[C@H](C)Cc1ccccc1` [SELEGILINE]: the NA restoration in the assay listed under Mus musculus was 79.71%.

`C#CCN(N)c1ccccc1`: the IC50 in assay [1] worked out at 11300 nM; in assay [2], 1010 nM. In the assay filed under Mus musculus, the NA restoration is recorded as -49.82%.

`C#CCNNCc1ccccc1`: the IC50 was determined as 362 nM in assay [1] and 2840 nM in assay [2]. For the same molecule, the NA restoration in the assay filed under Mus musculus is 31.74%.

For the molecule `C#CCNNCCc1ccccc1`, the IC50 in assay [1] came to 1850 nM; in assay [2], 3180 nM. Besides, the NA restoration in the assay filed under Mus musculus came out at 76.83%.

As to `C#CCNNC/C=C/c1ccccc1`, the IC50 in assay [1] was found to be 7900 nM; in assay [2] it was 10200 nM. Further, in the assay filed under Mus musculus, the NA restoration was -7.21%.

Take `C#CCN(N)C/C=C/c1ccccc1`: the IC50 was 1170 nM in assay [1] and 3530 nM in assay [2]. Also, in the assay filed under Mus musculus, the NA restoration is given as -39.2%.

As for `C#CCN(N)CCc1ccccc1`, the IC50 worked out at 2040 nM in assay [1] and 76.5 nM in assay [2]. Moreover, the NA restoration in the assay listed under Mus musculus is recorded as 56.38%.

Regarding `C#CCN(N)Cc1ccccc1`, the IC50 came out at 1560 nM in assay [1] and 121 nM in assay [2]. In addition, the NA restoration in the assay filed under Mus musculus was 33.58%.
